Patent US6060608A, “Analogs of CC-1065 and the duocarmycins” (The Scripps Research Institute, priority 1999, dated 2000)
“And” between values parts separate entries of the source, which are not always exact repeats. Equal values may be shown once. “Also recorded” adds a separate entry of the source.

Legend:
[1] = test system: w794 duplex DNA; assay: DNA alkylation selectivity and efficiency within w794 DNA, thermally-induced strand cleavage and PAGE; format: biochemical, SV40; conditions: for DNA alkylation, failure to alkylate: 105-107: 37° C., 72 h, up to 10^-2 M, 108 and 110: 10^-3 M or lower
Text: DNA Alkylation Selectivity and Efficiency. The DNA alkylation properties of the agents were examined within w794 duplex DNA, a 144 base-pair segment of duplex DNA for which comparative results are available for related agents. The alkylation site identification and the assessment of the relative selectivity among the available sites were obtained by thermally-induced strand cleavage of the singly 5' end-labeled duplex DNA after exposure to the agents. Following treatment of the end-labeled duplex DNA with a range of agent concentrations, the unbound agent was removed by EtOH precipitation of the DNA. Redissolution of the DNA in aqueous buffer, thermolysis (100° C., 30 min) to induce strand cleavage at the sites of DNA alkylation, denaturing high resolution polyacrylamide gel electrophoresis (PAGE) adjacent to Sanger dideoxynucleotide sequencing standards, and autoradiography led to identification of the DNA cleavage and alkylation sites. The DNA alkylation reaction selectivities observed under the incubation conditions for the agents detailed herein have proven identical to the alkylation selectivities observed with shorter or extended reaction periods or when the reactions were conducted at different temperatures (37 or 4° C., 0.5-7 d). As discussed below, the rates and efficiencies but not final relative efficiencies of DNA alkylation were altered by changing the reaction temperatures.
DNA Alkylation Properties. […] The DNA alkylation reaction was examined within w794 DNA for which comparative results are available for past agents. The alkylation site identification was obtained by thermal strand cleavage of the singly 5' end-labeled duplex DNA after exposure to the agents. Following treatment of the labeled DNA with a range of agent concentrations, the unbound agent was removed by EtOH precipitation of the DNA. Redissolution of the DNA in aqueous buffer, thermolysis at 100° C. (30 min) to induce depurination and strand cleavage at the adenine N3 or guanine N3 minor groove alkylation sites, denaturing high resolution PAGE adjacent to Sanger sequencing standards and autoradiography provided the DNA cleavage and alkylation sites.
DNA Alkylation Studies: selectivity and Efficiency. General procedures, the preparation of singly ^32 P 5' end-labeled double stranded DNA, the agent binding studies, gel electrophoresis, and autoradiography were conducted according to standard procedures. Eppendorf tubes containing the 5' end-labeled DNA (9 μL) in TE buffer (10 mM Tris, 1 mM EDTA, pH 7.5) were treated with the agent in DMSO (1 μL at the specified concentration). The solution was mixed by vortexing and brief centrifugation and subsequently incubated at 4 or 25° C. for 24 h (natural enantiomers) and 25 or 37° C. (unnatural enantiomers) for 72 h. The covalently modified DNA was separated from unbound agent by EtOH precipitation and resuspended in TE buffer (10 μL). The solution of DNA in an Eppendorf tube sealed with parafilm was warmed at 100° C. for 30 min to induce cleavage at the alkylation sites, allowed to cool to 25° C. and centrifuged. Formamide dye (0.03% xylene cyanol FF, 0.03% bromophenol blue, 8.7% Na2 EDTA 250 mM) was added (5 μL) to the supernatant. Prior to electrophoresis, the sample was denatured by warming at 100° C. for 5 min, placed in an icebath, and centrifuged, and the supernatant (3 μL) was loaded directly onto the gel. Sanger dideoxynucleotide sequencing reactions were run as standards adjacent to the reaction samples. Polyacrylamide gel electrophoresis (PAGE) was run on an 8% sequencing gel under denaturing conditions (8 M urea) in TBE buffer (100 mM Tris, 100 mM boric acid, 0.2 mM Na2 EDTA) followed by autoradiography.
DNA Alkylation of w794 DNA. Eppendorf tubes containing the 5'-end labeled DNA (9 μL) in TE buffer (10 mM Tris, 1 mM EDTA, pH 7.2) were treated with the agent in DMSO (1 μL at the specified concentration). […]

[2] = test system: calf thymus DNA; assay: DNA alkylation of calf thymus DNA, recovery of unreacted agent; format: biochemical; conditions: 37° C., 48-72 h, 1:51 agent:base-pair ratio
Experimental: DNA Alkylation of Calf Thymus DNA. An aliquot of agent (5 μL, 0.01 M in DMSO) was added to a calf thymus DNA solution (0.45 mL, 3.79 mg/mL, 10 mM sodium phosphate, pH 7.0, base-pair:agent=51:1). The DNA-agent mixtures were incubated at 37° C. for 72 h for both enantiomers of 105, 106 and 107 or at 37° C. for 48 h for 108, 109, 110 and 111. For both enantiomers of 105, 106, 108 and 110, the unreacted materials were extracted with EtOAc (0.5 mL×4). The combined extracts were dried and dissolved in EtOAc (0.9 mL) and the quantities of 105, 106, 108, and 110 were determined by UV. Additional extraction with EtOAc (0.5 mL×4) was carried out, and the amounts of combined material were determined by UV. No additional material was recovered. For the ionic agents 107, 109 and 111, the unreacted materials were recovered from the supernatants of EtOH precipitation of the DNA. The EtOH in the supernatant was removed by a stream of N2. The supernatants were diluted to 0.9 mL with H2 O and the recovered quantities of 107, 109, and 111 were determined by UV.
These studies were conducted alongside control reactions conducted in the absence of DNA. An aliquot of agent (5 μL, 0.01 M in DMSO) was added to sodium phosphate buffer (0.45 mL, 10 mM, pH 7.0). The agent-buffer mixtures were incubated at 37° C. for 72 h for both enantiomers of 105, 106 and 107 or at 37° C. for 48 h for 108, 109, 110 and 111. For 105, 106, 108 and 110, the materials were extracted with EtOAc (0.5 mL×4). The combined extracts were dried and dissolved in EtOAc (0.9 mL) and the agent quantities were determined by UV. For the ionic agents 107, 109 and 111, the agent-buffer mixtures were diluted to 0.9 mL with H2 O and their quantities were determined by UV.

[3] = in vivo; cited from earlier work
[4] = test system: w794 DNA, 5'-AATTA high affinity site; assay: Relative rate of DNA alkylation at the w794 5'-AATTA high affinity site; format: biochemical, SV40; conditions: 10^-6 M, 25° C.
Experimental: Rate of DNA Alkylation. The relative rates of DNA alkylation for the natural enantiommers of CCBI-TMI (35) and CCBI-indole2 (37) versus those of the corresponding CBI and MCBI agents were measured at the single high affinity site in w794, 5'-AATTA. The relative rates earlier studies of DNA alkylation for MCBI-TMI, CBI-TMI, and duocarmycin SA were determined to be quite similar at 4° C., 1.8:1.0:0.9, respectively. […] In prior studies, we have highlighted similar observations with agents that span a much larger range of relative reactivities.
The DNA alkylation selectivity and efficiency of the natural enantiomers of 304-307 were compared with that of 1 in w794 DNA. […] These trends in the overall efficiency of DNA alkylation parallel the relative trends in cytotoxic potency.
(§1) DNA Alkylation Relative Rate of (+)-CCBI-TMI (35), (+)-CBI-TMI, and (+)-MCBI-TMI. Following the procedure detailed above, Eppendorf tubes containing 5' end-labeled w794 DNA (9 μL) in TE buffer (pH 7.5) were treated with (+)-CCBI-TMI (35), (+)-CBI-TMI, or (+)-MCBI-TMI (1 μL, 10^-6 M in DMSO). The solutions were mixed and incubated at 25° C. for 2, 4, 6, 9, 12, 15, and 24 h, respectively. Subsequent isolation of the alkylated DNA by EtOH precipitation, resuspension in TE buffer (10 μL, pH 7.5), thermolysis (30 min, 100° C.), PAGE, and autoradiography were conducted as detailed above. Relative rates for alkylation at the w794 high-affinity 5'-AATTA site were derived from the slopes of the plots of percent integrated optical density (IOD) of the high-affinity alkylation cleavage bands versus time.
as §1, with “(+)-CCBI-indole2 (37), (+)-CBI-indole2,” for “(+)-CCBI-TMI (35), (+)-CBI-TMI,”, “(+)-MCBI-indole2.” for “(+)-MCBI-TMI.”, “(+)-CCBI-indole2 (37), (+)-CBI-indole2, and (+)-MCBI-indole2” for “(+)-CCBI-TMI (35), (+)-CBI-TMI, or (+)-MCBI-TMI”

[5] = test system: w794 DNA, 5'-AATTA high affinity site; conditions: 4° C., earlier studies, 1.8:1.0:0.9; cited from earlier work
[6] = test system: L1210; assay: In vitro cytotoxic activity, L1210; conditions: L1210

C[S+](C)CCCNC(=O)c1csc(-c2csc(CCNC(=O)CCC(=O)N3CC(CCl)c4c3cc(O)c3ccccc43)n2)n1.[I-] (stereo not drawn) [compound 109, 3-[2'-(2-(4-(1-Chloromethyl-5-hydroxy-1,2-dihydro-3H-benz[e]indol-3-yl)-1,4-dioxobutyl)aminoethyl)-2,4'-bithiazole-4-carboxamido]propyl Dimethyl Sulfonium Iodide]
DNA alkylation properties, comparison in words [1]: only slightly more effective than 116 | DNA alkylation sequence selectivity [1]: 5'-AA, 5'-TA and identical to that of N-BOC-CBI (123) and 116 | DNA alkylation of calf thymus DNA [2]: perceptible covalent attachment to the calf thymus DNA

C[C@@H](O)[C@H](NC(=O)CCC(=O)N1CC(CCl)c2c1cc(O)c1ccccc21)C(=O)NCCc1nc(-c2nc(C(=O)NCCC[S+](C)C)cs2)cs1 (stereo partly drawn) [compound 111, 3-[2'-(2-((4-(1-Chloromethyl-5-hydroxy-1,2-dihydro-3H-benz[e]indol-3-yl)-1,4-diooxobutyl)-L-threonyl)aminoethyl)-2,4'-bithiazole-4-carboxamido]propyl Dimethyl Sulfonium Iodide]
DNA alkylation properties, comparison in words [1]: only slightly more effective than 116 | DNA alkylation sequence selectivity [1]: 5'-AA, 5'-TA and identical to that of N-BOC-CBI (123) and 116 | DNA alkylation of calf thymus DNA [2]: perceptible covalent attachment to the calf thymus DNA

COc1c(O)c2c(c3cc(C(=O)N4CCc5c4c(O)c(OC)c4[nH]c(C(=O)N6CC7CC78C6=CC(=O)c6[nH]cc(C)c68)cc54)[nH]c13)CCN2C(N)=O (single isomer, unassigned) [ent-(-)-CC-1065]
delayed toxicity [3]: has not been observed

COc1cc2cc(C(=O)N3CC4CC45C3=CC(=O)c3ccccc35)[nH]c2c(OC)c1OC (single isomer, unassigned) [CBI-TMI]
relative rate of DNA alkylation, TMI series [4]: 1.0 × | relative rate of DNA alkylation [5]: 1.0

CSCCCNC(=O)c1csc(-c2csc(CCNC(=O)C(=O)N3CC(CCl)c4c3cc(O)c3ccccc43)n2)n1 (stereo not drawn) [compound 105, 3-[2'-(2-(2-(1-Chloromethyl-5-hydroxy-1,2-dihydro-3H-benz[e]indol-3-yl)-1,2-dioxoethyl)aminoethyl)-2,4'-bithiazole-4-carboxamido]propyl Methyl Sulfide]
DNA alkylation of calf thymus DNA [2]: recovered nearly quantitatively | cytotoxic potency in comparison with CBI building block or simple CBI derivatives [6]: approached the cytotoxic potency of 114

CSCCCNC(=O)c1csc(-c2csc(CCNC(=O)[C@@H](NC(=O)CCC(=O)N3CC(CCl)c4c3cc(O)c3ccccc43)[C@@H](C)O)n2)n1 (stereo partly drawn) [compound 110, 3-[2'-(2-((4-(1-Chloromethyl-5-hydroxy-1,2-dihydro-3H-benz[e]indol-3-yl)-1,4-dioxobutyl)-L-threonyl)aminoethyl)-2,4'-bithiazole-4-carboxamido]propyl Methyl Sulfide]
DNA alkylation, failure to alkylate [1]: failed to alkylate DNA at concentrations of 10^-3 M or lower | DNA alkylation of calf thymus DNA [2]: recovered nearly quantitatively

C[S+]([O-])CCCNC(=O)c1csc(-c2csc(CCNC(=O)C(=O)N3CC(CCl)c4c3cc(O)c3ccccc43)n2)n1 (stereo not drawn) [compound 106, 3-[2'-(2-(2-(1-Chloromethyl-5-hydroxy-1,2-dihydro-3H-benz[e]indol-3-yl)-1,2-dioxoethyl)aminoethyl)-2,4'-bithiazole-4-carboxamido]propyl Methyl Sulfoxide]
DNA alkylation of calf thymus DNA [2]: recovered nearly quantitatively

COc1ccc2c(c1)C13CC1CN(C(=O)c1cc4cc(OC)c(OC)c(OC)c4[nH]1)C3=CC2=O (single isomer, unassigned) [MCBI-TMI]
relative rate of DNA alkylation, TMI series [4]: 1.9 × | relative rate of DNA alkylation [5]: 1.8

CSCCCNC(=O)c1csc(-c2csc(CCNC(=O)CCC(=O)N3CC(CCl)c4c3cc(O)c3ccccc43)n2)n1 (stereo not drawn) [compound 108, 3-[2'-(2-(2-(1-Chloromethyl-5-hydroxy-1,2-dihydro-3H-benz[e]indol-3-yl)-1,4-dioxobutyl)aminoethyl)-2,4'-bithiazole-4-carboxamido]propyl Methyl Sulfide]
DNA alkylation, failure to alkylate [1]: failed to alkylate DNA at concentrations of 10^-3 M or lower; also recorded: no reaction is observed | DNA alkylation of calf thymus DNA [2]: recovered nearly quantitatively
